In ChEMBL document CHEMBL3872220, “Amphiphilic xanthones as a potent chemical entity of anti-mycobacterial agents with membrane-targeting properties” (Eur J Med Chem, 2016):
Values after ≈ are worked out from the molar mass of the structure shown. Active and inactive are the calls of the source. The rule behind the calls is not given here.

Legend:
[1] = tested on: Mycolicibacterium smegmatis; experiment: Bactericidal activity against Mycobacterium smegmatis MC2 155 measured after 2 days by time-kill assay; format: functional; conditions: str. MC2 155
[2] = tested on: Mycolicibacterium smegmatis; experiment: Bactericidal activity against Mycobacterium smegmatis MC2 155 assessed as log reduction in bacterial colonies at 2 times MIC measured after 6 hrs by time-kill assay; format: functional, str. MC2 155
[3] = tested on: Mycolicibacterium smegmatis; experiment: Bactericidal activity against Mycobacterium smegmatis MC2 155 assessed as log reduction in bacterial colonies at 4 times MIC measured after 3 hrs by time-kill assay; format: functional, str. MC2 155
[4] = tested on: Mycolicibacterium smegmatis; experiment: Bactericidal activity against Mycobacterium smegmatis MC2 155 assessed as log reduction in bacterial colonies at 2 times MIC measured after 3 hrs by time-kill assay; format: functional, str. MC2 155
[5] = tested on: Mycolicibacterium smegmatis; experiment: Bactericidal activity against Mycobacterium smegmatis MC2 155 assessed as log reduction in bacterial colonies at 3.2 uM measured after 6 hrs by time-kill assay; format: functional, str. MC2 155
[6] = tested on: Mycolicibacterium smegmatis; experiment: Induction of membrane integrity impairment in Mycobacterium smegmatis MC2 155 at 4 times MIC measured after 24 hrs by SYTO-9/propium iodide staining based Baclight assay relative to control; format: functional, str. MC2 155
[7] = tested on: Mycolicibacterium smegmatis; experiment: Induction of membrane integrity impairment in Mycobacterium smegmatis MC2 155 at 2 times MIC by SYTO-9/propium iodide staining based Baclight assay relative to control; format: functional, str. MC2 155
[8] = tested on: Mycolicibacterium smegmatis; experiment: Induction of impaired membrane integrity in Mycobacterium smegmatis MC2 155 assessed as reduction in membrane integrity at MIC by SYTO-9/propium iodide stain based Baclight assay relative to control; format: functional, str. MC2 155; parameters: scale not given: the % may be the effect or the level left
Lipid bilayer [9] = experiment: Induction of membrane damage in CI/DOPG/DOPI large unilamellar vesicles assessed as calcein leakage at lower compound to lipid ratio by fluorescence based […] assay relative to control
[10] = Tmax in Sprague-Dawley rat at 2 mg/kg administered via oral gavage measured by LC-MS/MS method; format: ADME, organism-based; conditions: in vivo
[11] = AUC (0 to infinity) in Sprague-Dawley rat at 2 mg/kg, iv administered as single bolus dose measured by LC-MS/MS method; format: ADME, organism-based; parameters: dose 2 mg/kg, route intravenous, time infinity; conditions: in vivo
[12] = AUC (0 to infinity) in Sprague-Dawley rat at 2 mg/kg, administered via oral gavage measured by LC-MS/MS method; format: ADME, organism-based; parameters: dose 2 mg/kg, time infinity, route oral; conditions: in vivo
[13] = Cmax in Sprague-Dawley rat at 2 mg/kg, iv administered as single bolus dose measured by LC-MS/MS method; format: ADME, organism-based; parameters: dose 2 mg/kg, route intravenous; conditions: in vivo
[14] = Cmax in Sprague-Dawley rat at 2 mg/kg administered via oral gavage measured by LC-MS/MS method; format: ADME, organism-based; parameters: dose 2 mg/kg, route oral; conditions: in vivo
[15] = Terminal half life in Sprague-Dawley rat at 2 mg/kg, iv administered as single bolus dose measured by LC-MS/MS method; format: ADME, organism-based; conditions: in vivo, read-out: beta t1/2 (converted)
[16] = Terminal half life in Sprague-Dawley rat at 2 mg/kg administered via oral gavage measured by LC-MS/MS method; format: ADME, organism-based; conditions: in vivo, read-out: beta t1/2 (converted)
[17] = Volume of distribution in Sprague-Dawley rat at 2 mg/kg, iv administered as single bolus dose measured by LC-MS/MS method; format: ADME, organism-based; conditions: in vivo
[18] = Clearance in Sprague-Dawley rat at 2 mg/kg, iv administered as single bolus dose measured by LC-MS/MS method; format: ADME, organism-based; conditions: in vivo
[19] = Oral bioavailability in Sprague-Dawley rat at 2 mg/kg measured by LC-MS/MS method; format: ADME, organism-based; conditions: in vivo
[20] = Selectivity index, ratio of CC50 for human corneal fibroblasts assessed as reduction in ATP level to MIC90 for Mycobacterium smegmatis MC2 155
[21] = tested on: Mycolicibacterium smegmatis; experiment: Induction of membrane integrity impairment in Mycobacterium smegmatis MC2 155 at 2 to 4 times MIC measured after 3 hrs by SYTO-9/propium iodide staining based Baclight assay relative to control; format: functional, str. MC2 155
[22] = tested on: Mycobacterium tuberculosis; experiment: Antimycobacterial activity against Mycobacterium tuberculosis clinical isolate 01;057 assessed as reduction in 2 log10 bacterial colonies measured after 14 to 21 days by agar dilution method; format: functional
[23] = tested on: Mycobacterium tuberculosis; experiment: Antimycobacterial activity against Mycobacterium tuberculosis clinical isolate 01;064 assessed as reduction in 2 log10 bacterial colonies measured after 14 to 21 days by agar dilution method; format: functional
[24] = tested on: Mycobacterium tuberculosis; experiment: Antimycobacterial activity against Mycobacterium tuberculosis clinical isolate 01;095 assessed as reduction in 2 log10 bacterial colonies measured after 14 to 21 days by agar dilution method; format: functional
[25] = tested on: Mycolicibacterium smegmatis; experiment: Induction of membrane disruption in Mycobacterium smegmatis MC2 155 assessed as increased cytoplasmic membrane permeability at 60 uM up to 3 hrs by Sytox green uptake assay; format: functional; conditions: str. MC2 155
Lipid bilayer [26] = experiment: Induction of membrane damage in CI/DOPG/DOPI large unilamellar vesicles assessed as calcein leakage at 1:4 compound to lipid ratio by fluorescence based […] assay relative to control
Lipid bilayer [27] = experiment: Induction of membrane damage in CI/DOPG/DOPI large unilamellar vesicles assessed as calcein leakage at 1:8 compound to lipid ratio by fluorescence based […] assay relative to control
[28] = tested on: Mycolicibacterium smegmatis; experiment: Bactericidal activity against Mycobacterium smegmatis MC2 155 assessed as log reduction in bacterial colonies at 4 times MIC measured after 24 hrs by time-kill assay; format: functional, str. MC2 155

CCCN(CCC)CCCCOc1cc2oc3cc(OCCCCN(CCC)CCC)c(OC)c(CC=C(C)C)c3c(=O)c2c(O)c1CC=C(C)C
Activity [1]: Dose-dependent effect | Activity [2]: 4.15 | Activity [3]: 4.15 | Activity [4]: 2.85 | Activity [5]: 1.6 | Activity [6]: 76.9% | Activity [7]: 78.8% | Activity [8]: 28% | Activity (Lipid bilayer [9]): < 10% | Tmax [10]: 4 h | AUC [11]: 22780 ng·h/mL | AUC(0-inf) [12]: 3300 ng·h/mL | Cmax [13]: 1500 ng/mL | Cmax [14]: 320 ng/mL | half-life [15]: 9.93 h | half-life [16]: 4.79 h | Vd [17]: 1.28 L/kg | CL [18]: 24.7 mL/min/kg | bioavailability [19]: 14 to 15% | Selectivity Index [20]: 15 - 40 | Activity [21]: >80%

CCN(CC)CCCCOc1cc2oc3cc(OCCCCN(CC)CC)c(OC)c(CC=C(C)C)c3c(=O)c2c(O)c1CC=C(C)C
MIC [22]: 4 µg/mL (≈ 6.02 µM) | MIC [23]: 8 µg/mL (≈ 12 µM) | MIC [24]: 4 µg/mL (≈ 6.02 µM) | Activity [6]: 62.5% | Activity [25]: Active | Activity (Lipid bilayer [26]): 23.4% | Activity (Lipid bilayer [27]): 14.6% | Activity [21]: >80%

COc1c(OCCCCN2CCOCC2)cc2oc3cc(OCCCCN4CCOCC4)c(CC=C(C)C)c(O)c3c(=O)c2c1CC=C(C)C
MIC [22]: 4 µg/mL (≈ 5.77 µM) | MIC [23]: 4 µg/mL (≈ 5.77 µM) | MIC [24]: 4 µg/mL (≈ 5.77 µM) | Activity [28]: 2.4 | Selectivity Index [20]: 15 - 40
